Reference: the supplement of paper PMC7645387
± gives the standard deviation of the averaged measurements.

Columns and labels:
Assay in all cases: cell viability relative to DMSO control; higher = less growth inhibition
Conditions in all cases: treatment time: 6 days
HDFB = system: HDFB
Procedure: (§1)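 MCC cell lines (PeTa, MKL-1, MS-1, WaGa) and HDFB fibroblasts were treated for 6 days with serial dilutions (1e-11 to 1e-4 M) of single compounds in quadruplicate. Viability was read by CellTiter-Glo 2.0 and expressed as % of DMSO control.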

PeTa = system: PeTa
Procedure: as §1

MKL-1 = system: MKL-1
Procedure: as §1

WaGa = system: WaGa
Procedure: as §1

MS-1 = system: MS-1
Procedure: as §1

| SMILES | cell viability (HDFB; log10 concentration (M): -4) | cell viability (HDFB; log10 concentration (M): -5) | cell viability (HDFB; log10 concentration (M): -6) | cell viability (HDFB; log10 concentration (M): -7) | cell viability (HDFB; log10 concentration (M): -8) | cell viability (HDFB; log10 concentration (M): -9) | cell viability (HDFB; log10 concentration (M): -10) | cell viability (HDFB; log10 concentration (M): -11) | cell viability (PeTa; log10 concentration (M): -4) | cell viability (PeTa; log10 concentration (M): -5) | cell viability (PeTa; log10 concentration (M): -6) | cell viability (PeTa; log10 concentration (M): -7) | cell viability (PeTa; log10 concentration (M): -8) | cell viability (PeTa; log10 concentration (M): -9) | cell viability (PeTa; log10 concentration (M): -10) | cell viability (PeTa; log10 concentration (M): -11) | cell viability (MKL-1; log10 concentration (M): -4) | cell viability (MKL-1; log10 concentration (M): -5) | cell viability (MKL-1; log10 concentration (M): -6) | cell viability (MKL-1; log10 concentration (M): -7) | cell viability (MKL-1; log10 concentration (M): -8) | cell viability (MKL-1; log10 concentration (M): -9) | cell viability (MKL-1; log10 concentration (M): -10) | cell viability (MKL-1; log10 concentration (M): -11) | cell viability (WaGa; log10 concentration (M): -5) | cell viability (WaGa; log10 concentration (M): -6) | cell viability (WaGa; log10 concentration (M): -7) | cell viability (WaGa; log10 concentration (M): -8) | cell viability (WaGa; log10 concentration (M): -9) | cell viability (WaGa; log10 concentration (M): -10) | cell viability (WaGa; log10 concentration (M): -11) | cell viability (MS-1; log10 concentration (M): -5) | cell viability (MS-1; log10 concentration (M): -6) | cell viability (MS-1; log10 concentration (M): -7) | cell viability (MS-1; log10 concentration (M): -8) | cell viability (MS-1; log10 concentration (M): -9) | cell viability (MS-1; log10 concentration (M): -10) | cell viability (MS-1; log10 concentration (M): -11) |
| --- | --- | --- | --- | --- | --- | --- | --- | --- | --- | --- | --- | --- | --- | --- | --- | --- | --- | --- | --- | --- | --- | --- | --- | --- | --- | --- | --- | --- | --- | --- | --- | --- | --- | --- | --- | --- | --- | --- |
| O=C(NC[C@H](O)CN1CCc2ccccc2C1)c1ccnc(NC2CCC2)c1 [GSK591] | 91.5 ± 3.5% | 115 ± 7.4% | 112 ± 5.1% | 117 ± 5.5% | 113 ± 3.1% | 104 ± 2.8% | 104 ± 2.1% | 101 ± 2% | 26.2 ± 2.9% | 80.4 ± 3.4% | 93.2 ± 3.1% | 103 ± 3.5% | 107 ± 7.2% | 108 ± 6.4% | 106 ± 7.8% | 100 ± 7.8% | 37.2 ± 2.9% | 64.4 ± 12% | 72.4 ± 13% | 79.2 ± 16% | 84.2 ± 21% | 98.2 ± 17% | 111 ± 28% | 101 ± 22% | – | – | – | – | – | – | – | – | – | – | – | – | – | – |
| c1ccc([C@@H]2C[C@H]2NC2CCNCC2)cc1 [GSK-LSD1] | – | 97.43 ± 0.88% | 98.5 ± 1.4% | 98.6 ± 3.9% | 99.4 ± 4.2% | 100 ± 1.2% | 105 ± 2.1% | 103 ± 1.1% | – | 28.8 ± 1.3% | 23.1 ± 2.4% | 21.3 ± 0.88% | 28.1 ± 0.85% | 67.8 ± 4.2% | 101 ± 5.4% | 99.1 ± 7.4% | – | 56.1 ± 5.8% | 62 ± 1.4% | 60.1 ± 3.4% | 67.2 ± 1.8% | 87.9 ± 6.7% | 98.1 ± 2.9% | 98.7 ± 1.5% | 45 ± 5.1% | 49.8 ± 2.1% | 44.1 ± 5.5% | 55.4 ± 1.8% | 76.6 ± 5.2% | 95.6 ± 3% | 97.6 ± 6.1% | 45.9 ± 1.6% | 45.4 ± 3.8% | 47.6 ± 1.6% | 47.1 ± 3.4% | 74.9 ± 5.8% | 93.1 ± 2.9% | 94.7 ± 3.8% |
| CN1CCN(c2ccc(-c3cccc(CN4CCOCC4)c3)cc2NC(=O)c2c[nH]c(=O)cc2C(F)(F)F)CC1 [OICR9429] | 42.7 ± 12% | 83.7 ± 5.2% | 97.6 ± 5.7% | 105 ± 3.1% | 117 ± 20% | 113 ± 7.9% | 108 ± 4.6% | 104 ± 4.1% | 49.1 ± 85% | 96.8 ± 45% | 103 ± 21% | 111 ± 21% | 119 ± 29% | 126 ± 27% | 122 ± 21% | 126 ± 25% | 0.438 ± 0.44% | 57.6 ± 3.4% | 79.2 ± 7.5% | 87.1 ± 17% | 80.2 ± 6.2% | 85.8 ± 12% | 89.9 ± 12% | 85.7 ± 13% | – | – | – | – | – | – | – | – | – | – | – | – | – | – |
| N[C@H]1CC[C@H](N[C@@H]2C[C@H]2c2ccccc2)CC1 [ORY-1001] | – | 95.7 ± 2.2% | 97.6 ± 3.9% | 94.1 ± 2.7% | 95.1 ± 2.2% | 96.1 ± 1.3% | 99.58 ± 0.98% | 100 ± 1.3% | – | 22.3 ± 2.8% | 18.2 ± 3.2% | 17.2 ± 0.89% | 16.3 ± 1.2% | 47.5 ± 17% | 102 ± 6.4% | 97.6 ± 4.8% | – | 39.8 ± 5.9% | 44.9 ± 3.6% | 46.4 ± 4.5% | 62.8 ± 28% | 81 ± 16% | 102 ± 3.2% | 100 ± 4.5% | 35.1 ± 2.3% | 38.3 ± 4.8% | 39.7 ± 5.1% | 44 ± 5.8% | 63.3 ± 1.2% | 91.5 ± 1.2% | 99.1 ± 0.86% | 47.3 ± 2.2% | 56.8 ± 1.2% | 58.9 ± 5.5% | 57.2 ± 2.4% | 58.8 ± 1.9% | 104 ± 3% | 104 ± 16% |
| CCOC(=O)NCCCC(=O)NCCc1ccccc1 [Santacruzamate A] | 41.6 ± 3.4% | 103 ± 3.4% | 103 ± 3.5% | 99.8 ± 4.6% | 101 ± 3.4% | 101 ± 6.3% | 99.3 ± 7.7% | 100 ± 9.2% | 45.5 ± 14% | 104 ± 5.5% | 105 ± 2.4% | 99.9 ± 11% | 105 ± 1.4% | 103 ± 1.9% | 105 ± 3.6% | 103 ± 2.8% | 34.9 ± 2.9% | 106 ± 1.2% | 105 ± 1.5% | 104 ± 1.9% | 103 ± 1.4% | 102 ± 3.4% | 99.3 ± 7.4% | 100 ± 1.6% | – | – | – | – | – | – | – | – | – | – | – | – | – | – |
